The test system of test [1] is ACHN, NCI-H23, PC-3, MDA-MB-231, LOX-IMVI, colon carcinoma cell lines. The arrangement: method as in PMID 17662606. As to conditions: 24 h of incubation, range over cell lines; cited from earlier work.
The test system of test [2] is HuCCA-1, KB, HeLa and T47D cell lines. More on the design: method as in PMID 21922909. As to conditions: 48 h incubation, range over cell lines; cited from earlier work.
Test [3] deals with caspase 3 (Casp-3) in THP-1 cells. Briefly: Western blotting of apoptosis-related proteins. The settings on record: THP-1, complexes 4 µM, 24 h, Western blot. The format is cell-based, human. Here is the method:
In addition to the above-mentioned methods, the Western blotting method was used to shed light on the mechanisms associated with caspase 3 activation in the THP-1 cells. Two and a half milliliters of floating THP-1 monocytes resuspended in a serum-free RPMI 1640 medium were seeded into 6-well plates at the concentration of 10^6 cells/mL. Two hours later, complexes 3 and 5 were added at the concentration level of 4 µM. After 24 h incubation, the cells were collected by centrifugation (3000 g/5 min/4 °C), washed by cold PBS and resuspended in an ice-cold lysis buffer (50 mM Tris-HCl pH 7.5, 1 mM EGTA, 1 mM EDTA, 1 mM sodium orthovanadate, 50 mM sodium fluoride, 5 mM sodium pyrophosphate, 270 mM sucrose) with Roche cOmplete protease inhibitors (Roche Diagnostics, Basel, Switzerland). The cell lysates were centrifuged at 3000 g/5 min/4 °C and supernatants were mixed with a 5x Laemmli buffer [containing 250 mM Tris-HCl pH 6.8, 10% (w/v) SDS, 30% (v/v) glycerol, 5% (v/v) β-mercaptoethanol, 0.04% (w/v) bromphenol blue] and incubated at 70 °C for 5 min. […] The membranes were incubated at 4 °C for 16 h with a primary anti-cleaved caspase 3 (p17) antibody at the dilution 1:1000 (Cell Signaling, Danvers, MA, USA; products No. 9664), and an Apoptosis WB Cocktail (Abcam, Cambridge, UK; product No. ab136812) at the dilution recommended by the provider to detect β-actin, cleaved poly-(ADP-ribose) polymerase (PARP) and pro-caspase 3. After washing in a TBST buffer, the secondary anti-rabbit IgG antibody (Sigma-Aldrich, product No. A0545) was diluted 1:2500 and applied to the membranes, which were then incubated for 1 h at the laboratory temperature (~22 °C). The amount of bound secondary antibody was determined using an ECL reagent (Bio-Rad, Hercules, CA, USA). Chemiluminescence was detected using a Syngene PXi4 chemiluminescence imaging system (Cambridge, UK).

In the case of `CC(C)=CCc1c2c(c3occ(-c4ccc(O)c(O)c4)c(=O)c3c1O)C=CC(C)(C)O2` [pomiferin, 3-(3,4-dihydroxyphenyl)-5-hydroxy-8,8-dimethyl-6-(3-methylbut-2-ene-1-yl)-4H,8H-benzo[1,2-b:3,4-b′]dipyran-4-one], the GI50 in test [1] is 1320 to 13300 nM. In test [2], the ED50 was 600 to 24000 nM.
Take “(3-(3,4-dihydroxyphenyl)-8,8-dimethyl-6-(3-methylbut-2-en-1-yl)-4H,8H-benzo[1,2-b:3,4-b′]dipyran-4-one-5-olato-κ^2O4:O5)(dipyrido[3,2-a:2′,3′-c]phenazine–κ^2N4:N5)copper(II) nitrate methanol solvate [Complex 5]”: the “levels of pro-caspase 3 (pro-Casp-3)” value in test [3] is listed as “dramatically decreased”. The “proteolytically activated Casp-3 (verified by cleaved PARP-1)” value in test [3] (cisplatin 10 µM) is recorded as “only minor activity of Casp-3”.

The record behind these values is article PMC8305652, “Copper(II) Complexes Containing Natural Flavonoid Pomiferin Show Considerable In Vitro Cytotoxicity and Anti-inflammatory Effects” (International Journal of Molecular Sciences, 2021).
